The molecules below were run against T1, Recombinant human BRD4 containing dual bromodomains (BRD4-BD12 (1-477)) (Homo sapiens, UniProt O60885) (assay: BRD4 Alphascreen binding assay).
T1 construct: Recombinant human BRD4 containing dual bromodomains (BRD4-BD12 (1-477)); made in house; host or cells: E. coli BL21-CodonPlus (DE3), modified pET vector
Experimental: BRD4 Alphascreen Binding Assay
Binding of compounds of Formula (I) with BRD4 was assessed using Alphascreen binding assay. The inhibition of the interaction between BRD4 and its acetylated target protein was measured quantitatively using recombinant BRD4 protein, an acetylated Histone 4 peptide, and AlphaScreen™ technology. In absence of inhibition of the BRD4 protein bound to AlphaScreen™ nickel chelate acceptor beads can interact with the acetylated Histone 4 peptide which was immobilized by the AlphaScreen™ Streptavidin coated beads. This interaction brings donor and acceptor beads in proximity. The close proximity allows the singlet oxygen produced by laser excitation of the donor beads to reach the acceptor beads and generate a luminescence signal. BRD4 inhibitors result in a decrease in the proximity signal through an inhibition of the BRD4—acetylated peptide interaction.
Recombinant human BRD4 containing dual bromodomains (BRD4-BD12 (1-477)) was prepared and purified as described in protein expression and purification session. The peptide was human Histone H41-21K5AcK8AcK12AcK16Ac-Biotin (Anaspec CA, USA).
Protocol for BRD4 assay: All components are prepared in buffer composed of 50 mM HEPES pH 7.5, 50 mM NaCl, 0.01% BSA, 0.01% Triton X-100, 2 mM DTT. Test compounds and DMSO vehicle are diluted 1:50 in buffer and a 4 μL volume was transferred to an Alphaplate. 5.5 μL of Bromodomain protein and 5.5 μL of peptide are added to wells containing 4 μL of various concentrations of test compounds of Formula (I) or DMSO vehicle in an Alphaplate (PerkinElmer GA, USA) and incubated for 1 hour at room temperature. 5 μL donor and acceptor bead mixture was then added with final concentrations of 7.5 μg/ml. 30 minutes after bead addition, Alpha signal was read on the Envision spectrometer (λEx 680 nm, λEm 520-620 nm). Final concentrations of bromodomain proteins and peptide are as shown below.
All data were normalized to the mean of 16 high and 16 low control wells on each plate. A four parameter curve fit of the following formula was then applied: Y=A+((B−A)/(1+((C/x)^D))) Where ‘A’ is the minimum, ‘B’ is the maximum, ‘C’ is the IC50 and ‘D’ is the Hill slope. Protein Expression and Purification
Recombinant human BRD4 containing dual bromodomains (BRD4-BD12 (1-477)) was expressed in E. coli cells (in a modified pET vector) with an N-terminal six-His tag and purified using a combination of both IMAC (Ni-affinity) and size exclusion chromatography steps.
Recombinant BRD4 was expressed using the E. coli strain BL21-CodonPlus (DE3) (Agilent Technologies CA, USA). Cells were grown in Terrific Broth (TB) media to an OD600 of 2.0 at 37° C. at which temperature was reduced to 18° C., protein was induced with 0.1 mM isopropyl-β-D-thiogalactopyranoside (“IPTG”) for 12-18 hours and harvested by centrifugation at 8000×g for 20 minutes. Cells were re-suspended in 40 mM Tris-HCl pH 8.0, 0.5 M NaCl, 25 mM Imidazole, 5% glycerol, 1/200 vol. Protease Inhibitor Cocktail Set III (Calbiochem), 5 mM beta-mercaptoethanol (“BME”), 0.5 mg/mL Lysozyme, and 0.5 mg/mL DNaseI, incubated on ice for 30 minutes and lysed with a cell disruptor (MicroFluidics MA, USA). The lysate was clarified by centrifugation at 20,000×g for 2 hours. The protein was captured with Ni-NTA resin (Life Technologies, USA). Contaminating proteins were washed off with 40 mM Tris-HCl pH 8.0, 0.5 M NaCl, 25 mM Imidazole, 5% glycerol, and 5 mM BME. Following 3× wash steps, protein was eluted step wise into wash buffer containing 50, 100, 150, 500 mM Imidazole. The protein was further purified using Gel Filtration column 16/60 Superdex 200 (GE Biosciences NJ, USA) in 10 mM HEPES pH 8.0, 150 mM NaCl, and 5 mM DTT. Glycerol was added to a final concentration of 12% and the protein was aliquoted and flash-frozen in liquid Nitrogen.

SMILES | IC50 [µM]
Cc1noc(C)c1-c1cnc2c(Cc3cccc(Cl)c3)cn(-c3c(Cl)cc(C(=O)O)cc3Cl)c2c1 [P-0128, 3,5-dichloro-4-(3-(3-chlorobenzyl)-6-(3,5-dimethylisoxazol-4-yl)-1H-pyrrolo[3,2-b]pyridin-1-yl)benzoic acid] | 1 to 8
Cc1noc(C)c1-c1cnc2c(C(=O)c3cccc(OC(F)F)c3)cn(-c3c(Cl)cc(C(=O)O)cc3Cl)c2c1 [P-0129, 3,5-dichloro-4-(3-(3-(difluoromethoxy)benzoyl)-6-(3,5-dimethylisoxazol-4-yl)-1H-pyrrolo[3,2-b]pyridin-1-yl)benzoic acid] | 1 to 8
Cc1noc(C)c1-c1cnc2c(CC3CCC3)cn(-c3ccc([N+](=O)[O-])cc3F)c2c1 [P-0130, 4-(3-(cyclobutylmethyl)-1-(2-fluoro-4-nitrophenyl)-1H-pyrrolo[3,2-b]pyridin-6-yl)-3,5-dimethylisoxazole] | 8 to 1000
Cc1noc(C)c1-c1cnc2c(Cc3ccccc3Cl)cn(-c3c(Cl)cc(C(=O)O)cc3Cl)c2c1 [P-0131, 3,5-dichloro-4-(3-(2-chlorobenzyl)-6-(3,5-dimethylisoxazol-4-yl)-1H-pyrrolo[3,2-b]pyridin-1-yl)benzoic acid] | 1 to 8
Cc1noc(C)c1-c1cnc2c(Cc3cccc(OCc4ccccc4)c3)cn(-c3c(Cl)cc(C(=O)O)cc3Cl)c2c1 [P-0132, 4-(3-(3-(benzyloxy)benzyl)-6-(3,5-dimethylisoxazol-4-yl)-1H-pyrrolo[3,2-b]pyridin-1-yl)-3,5-dichlorobenzoic acid] | 8 to 1000
Cc1noc(C)c1-c1cnc2c(C(=O)c3cccc(OCc4ccccc4)c3)cn(-c3c(Cl)cc(C(=O)O)cc3Cl)c2c1 [P-0133, 4-(3-(3-(benzyloxy)benzoyl)-6-(3,5-dimethylisoxazol-4-yl)-1H-pyrrolo[3,2-b]pyridin-1-yl)-3,5-dichlorobenzoic acid] | 1 to 8
COc1ccc(-n2cc(CC3CCC3)c3ncc(-c4c(C)noc4C)cc32)cn1 [P-0134, 4-(3-(cyclobutylmethyl)-1-(6-methoxypyridin-3-yl)-1H-pyrrolo[3,2-b]pyridin-6-yl)-3,5-dimethylisoxazole] | 8 to 1000
COc1cc(C(=O)O)cc(OCc2ccccc2)c1-c1cn([C@@H](C)c2ccccn2)c2ncc(-c3c(C)noc3C)cc12 [P-0135, (S)-3-(benzyloxy)-4-(5-(3,5-dimethylisoxazol-4-yl)-1-(1-(pyridin-2-yl)ethyl)-1H-pyrrolo[2,3-b]pyridin-3-yl)-5-methoxybenzoic acid] | 8 to 1000
COc1c(C(=O)O)cccc1-c1cn(C(C)c2ccccc2)c2cc(-c3c(C)noc3C)cnc12 (stereo not drawn) [P-0136, 3-(6-(3,5-dimethylisoxazol-4-yl)-1-(1-phenylethyl)-1H-pyrrolo[3,2-b]pyridin-3-yl)-2-methoxybenzoic acid] | 0.0001 to 1
Cc1noc(C)c1-c1cnc2c(c1)c(-c1ccc(C(=O)O)cc1OC1COC1)cn2[C@@H](C)c1ccccn1 [P-0137, (S)-4-(5-(3,5-dimethylisoxazol-4-yl)-1-(1-(pyridin-2-yl)ethyl)-1H-pyrrolo[2,3-b]pyridin-3-yl)-3-(oxetan-3-yloxy)benzoic acid] | 8 to 1000
Cc1noc(C)c1-c1cnc2c(c1)c(-c1ccc(C(=O)O)cc1OCC1CC1)cn2[C@@H](C)c1ccccn1 [P-0138, (S)-3-(cyclopropylmethoxy)-4-(5-(3,5-dimethylisoxazol-4-yl)-1-(1-(pyridin-2-yl)ethyl)-1H-pyrrolo[2,3-b]pyridin-3-yl)benzoic acid] | 8 to 1000
Cc1noc(C)c1-c1cnc2c(c1)c(-c1ccc(C(=O)O)cc1OCc1ccccc1)cn2[C@@H](C)c1ccccn1 [P-0139, (S)-3-(benzyloxy)-4-(5-(3,5-dimethylisoxazol-4-yl)-1-(1-(pyridin-2-yl)ethyl)-1H-pyrrolo[2,3-b]pyridin-3-yl)benzoic acid] | 8 to 1000
COc1ccc(C(=O)O)cc1-c1cn(C(C)c2ccccc2)c2cc(-c3c(C)noc3C)cnc12 (stereo not drawn) [P-0140, 3-(6-(3,5-dimethylisoxazol-4-yl)-1-(1-phenylethyl)-1H-pyrrolo[3,2-b]pyridin-3-yl)-4-methoxybenzoic acid] | 8 to 1000
Cc1noc(C)c1-c1cnc2c(-c3cc(C(=O)O)ccc3Cl)cn(C(C)c3ccccc3)c2c1 (stereo not drawn) [P-0141, 4-chloro-3-(6-(3,5-dimethylisoxazol-4-yl)-1-(1-phenylethyl)-1H-pyrrolo[3,2-b]pyridin-3-yl)benzoic acid] | 8 to 1000
COc1cc(C(=O)O)ccc1-c1cn([C@@H](C)c2ccccn2)c2cc(-c3c(C)noc3C)cnc12 [P-0142, (S)-4-(6-(3,5-dimethylisoxazol-4-yl)-1-(1-(pyridin-2-yl)ethyl)-1H-pyrrolo[3,2-b]pyridin-3-yl)-3-methoxybenzoic acid] | 0.0001 to 1
Cc1noc(C)c1-c1cnc2c(CC3CCC3)cn(-c3ccc(O)nc3)c2c1 [P-0143, 5-(3-(cyclobutylmethyl)-6-(3,5-dimethylisoxazol-4-yl)-1H-pyrrolo[3,2-b]pyridin-1-yl)pyridin-2-ol] | 8 to 1000
COc1cc(C(=O)O)cc(O)c1-c1cn([C@@H](C)c2ccccn2)c2ncc(-c3c(C)noc3C)cc12 [P-0144, (S)-4-(5-(3,5-dimethylisoxazol-4-yl)-1-(1-(pyridin-2-yl)ethyl)-1H-pyrrolo[2,3-b]pyridin-3-yl)-3-hydroxy-5-methoxybenzoic acid] | 8 to 1000
Cc1noc(C)c1-c1cnc2c(c1)c(-c1ccnc(O)c1)cn2[C@@H](C)c1ccccn1 [P-0145, (S)-4-(5-(3,5-dimethylisoxazol-4-yl)-1-(1-(pyridin-2-yl)ethyl)-1H-pyrrolo[2,3-b]pyridin-3-yl)pyridin-2-ol] | 8 to 1000
COc1cc(C(=O)O)cc(OC)c1-c1cn([C@@H](C)c2ccccn2)c2cc(-c3c(C)noc3C)cnc12 [P-0146, (S)-4-(6-(3,5-dimethylisoxazol-4-yl)-1-(1-(pyridin-2-yl)ethyl)-1H-pyrrolo[3,2-b]pyridin-3-yl)-3,5-dimethoxybenzoic acid] | 8 to 1000
CCOc1cc(C(=O)O)cc(OCC)c1-c1cn([C@@H](C)c2ccccn2)c2ncc(-c3c(C)noc3C)cc12 [P-0147, (S)-4-(5-(3,5-dimethylisoxazol-4-yl)-1-(1-(pyridin-2-yl)ethyl)-1H-pyrrolo[2,3-b]pyridin-3-yl)-3,5-diethoxybenzoic acid] | 8 to 1000
CC[C@@H](c1ccccn1)n1cc(-c2cc(C(=O)O)ccc2Cl)c2ncc(-c3c(C)noc3C)cc21 [P-0148, (S)-4-chloro-3-(6-(3,5-dimethylisoxazol-4-yl)-1-(1-(pyridin-2-yl)propyl)-1H-pyrrolo[3,2-b]pyridin-3-yl)benzoic acid] | 1 to 8
Cc1noc(C)c1-c1cc2c(cn1)c(CC1CCC1)cn2-c1c(Cl)cc(C(=O)O)cc1Cl [P-0149, 3,5-dichloro-4-(3-(cyclobutylmethyl)-6-(3,5-dimethylisoxazol-4-yl)-1H-pyrrolo[3,2-c]pyridin-1-yl)benzoic acid] | 8 to 1000
Cc1noc(C)c1-c1cnc2c(-c3ccccc3)cn(-c3c(Cl)cc(C(=O)O)cc3Cl)c2c1 [P-0150, 3,5-dichloro-4-(6-(3,5-dimethylisoxazol-4-yl)-3-phenyl-1H-pyrrolo[3,2-b]pyridin-1-yl)benzoic acid] | 1 to 8
Cc1noc(C)c1-c1cnc2c(C3=CCOCC3)cn(-c3c(Cl)cc(C(=O)O)cc3Cl)c2c1 [P-0151, 3,5-dichloro-4-(3-(3,6-dihydro-2H-pyran-4-yl)-6-(3,5-dimethylisoxazol-4-yl)-1H-pyrrolo[3,2-b]pyridin-1-yl)benzoic acid] | 1 to 8

Reference: patent publication US11446287B2, “Compounds and methods for EP300 or CBP modulation and indications therefor” (Opna Immuno-Oncology SA, priority 2019, dated 2022)
